For one test, the system named is A. baumannii ATCC 17978. It counts as cell-based, Acinetobacter baumannii. To be noted: Acinetobacter baumannii ATCC 17978; broth dilution, 37 °C, 18 h. Here is the method:
(§1) Unless otherwise indicated, we used E. coli K-12 BW25113 in all high-throughput experiments. To investigate the impact of mutation rate on evolution of AMP resistance, we initiated laboratory evolution with a mutator strain E. coli mutD5 that carries mutations in the dnaQ gene (L73W and A164V).
(§2) MICs were determined using a standard serial broth dilution technique. Briefly, 11-step serial dilutions were prepared in 96-well microtiter plates with three replicates per strain and antimicrobial compound. Each experiment was repeated at least twice. 5 × 10^5 cells/mL were inoculated into each well, and the plates were incubated at 30 °C in case of E. coli K-12 BW25113, and its antibiotic and AMP-adapted lines, or 37 °C in case of the other bacterial species. Plates were shaken at 300 r.p.m. during incubation for 24 and 18 h, respectively. Cell growth was monitored by measuring the optical density (OD600 value, Biotek Synergy 2 microplate reader was used for this purpose). […] Relative MIC was calculated as follows: MICrelative = MICevolved/MICcontrol.

The test system of test [1] is Enterobacter cloacae subsp. cloacae ATCC 13047. Format: cell-based. The note with it: broth dilution, 37 °C, 18 h. Here is the method: as §1, §2
On the technique in general: Dilution methods test growth across graded concentrations, often in twofold steps.

The subject of test [2] is Enterococcus faecium ATCC 700221. Format: cell-based. To be noted: broth dilution, 37 °C, 18 h. Here is the method:
as §1, §2

The test system of test [3] is Escherichia coli ATCC BAA 2340. Format: cell-based. The note with it: broth dilution, 37 °C, 18 h. Here is the method:
as §1, §2

Test [4] relates to Escherichia coli ATCC BAA 2469. Format: cell-based. To be noted: broth dilution, 37 °C, 18 h. Here is the method:
as §1, §2

Test [5] relates to Escherichia coli NCTC 13351. Format: cell-based. The note with it: broth dilution, 37 °C, 18 h. Here is the method: as §1, §2
Test [6] has as its system Pseudomonas aeruginosa ATCC 27853. It counts as cell-based. The note with it: broth dilution, 37 °C, 18 h. Here is the method:
as §1, §2

For test [7], the system named is Salmonella enteritidis HNCMB 10092. Format: cell-based. The note with it: broth dilution, 37 °C, 18 h. Here is the method: as §1, §2
The test system of test [8] is Shigella flexneri HNCMB 20018. Format: cell-based. To be noted: broth dilution, 37 °C, 18 h. Here is the method:
as §1, §2

In test [9] the test system is Shigella sonnei HNCMB 25021. It counts as cell-based. To be noted: broth dilution, 37 °C, 18 h. Here is the method: as §1, §2
The test system of test [10] is Staphylococcus aureus subsp. aureus ATCC 25923. Format: cell-based. The note with it: broth dilution, 37 °C, 18 h. Here is the method:
as §1, §2

For test [11], the system named is Streptococcus pyogenes ATCC 19653. Format: cell-based. The note with it: broth dilution, 37 °C, 18 h. Here is the method: as §1, §2

Ends that are not written are not given here.

In general, MIC refers to the lowest concentration found to suppress growth. With “SWLSKTAKKLENSAKKRISEGIAIAIQGGPR [CP1, Cecropin P1]”, the minimum inhibitory concentration (MIC) was 0.6 to 1.2 µM with A. baumannii ATCC 17978; more than 9.6 µM in [1]; more than 9.6 µM in [2]; 1.2 µM in test [3]; 1.2 µM in [4]; 0.6 to 1.2 µM in test [5]. In addition, the minimum inhibitory concentration (MIC) in [6] is 2.4 µM; in test [7], 1.2 µM; in test [8] it was 1.2 µM; in [9], 0.6 to 1.2 µM; in [10], more than 9.6 µM; in [11], more than 9.6 µM.

These data come from paper PMC6778101 (Nature Communications, 2019).
